Source: patent US7226598B2, “Peptide inhibitors of HIV entry” (priority 1998, dated 2007)
Where two headings read alike, the source gives them in different places. Marks after values point to notes of the source that are not given here.

How the values were obtained:
HIV-1 = tested on: HIV-1
Description: HIV Infectivity Assay. Inhibitory activity of IQN17 and derivatives was determined in an HIV luciferase assay (Chen et al., 1994). Specifically, virus was made by cotransfecting 293T cells with an HIV-1 genome containing a frame-shift mutation in env and luciferase replacing the nef gene (NL43LucR-E-) along with pCMVHXB2, an expression vector with the HXB2 gp160 gene. The resultant virus is only viable for one round of infection since its genome lacks the envelope gene. The cellular debris was removed by low-speed centrifugation. The remaining viral supernatant was used to infect HOS-CD4/Fusion cells (N. Landau, National Institutes of Health AIDS Reagent Program) in the presence of the potentially inhibitory peptides. Two days post infection, the cells were lysed and luciferase activity was monitored on a Wallac AutoLumat LB953 luminometer (Gaithersburg, Md.). IC50s (the peptide concentration at which half of the viral infection is inhibited) were calculated by fitting the data to a Langmuir equation [y=k/(1+[peptide]/IC50)], where y=luciferase activity and k is a scaling constant.

[1] = Circular dichroism (helicity); format: physicochemical; settings: for θ222 nm: 20 μM solution of peptide in PBS (legend of Table 1); for helicity: at 20 μM; for CD minimum at 222 nm: 10 μM
Description: Circular Dichroism. All CD measurements were performed on an Aviv 62 DS cirucular dichroism spectrometer. […] The mean residue ellipticity (θ) was calculated by dividing the raw signal by peptide concentration (M), pathlength (mm) and number of amino acids. Percent helicity was calculated according to Chen et al. (Biochemistry, 13, 1974, p3350). Thermal denaturation scans of 10 μM peptide solutions in PBS were recorded at 222 nm. The peptide was heated at two degree intervals starting at 4° C., with an equilibration time of 1.5 minutes and an averaging time of 60 seconds.

[2] = Sedimentation equilibrium (analytical ultracentrifugation); format: physicochemical
Description: Sedimentation Equilibrium. All measurements were recorded on a Beckman XL-A analytical ultracentrifuge equipped with an An-60 Ti rotor. Lyophilized peptide was resuspended in water, and the peptide concentration was determined (Edelhoch, 1967). The solution was diluted to 100–200 μM and then dialized overnight against PBS. Following dialysis, the concentration was redetermined and the appropriate dilutions were made, using the dialysis buffer. The samples were centrifuged at speeds ranging from 19,000 to 25,000 RPM.

[3] = Thermal denaturation followed by CD at 222 nm; format: physicochemical; settings: in 2 M GuHCl
[4] = Thermal denaturation followed by CD at 222 nm; format: physicochemical
Description: Circular Dichroism. All CD measurements were performed on an Aviv 62 DS cirucular dichroism spectrometer. Standard scans were performed on 10 μM solutions of peptide in PBS (50 mM sodium phosphate, 150 mM sodium chloride [pH 7.4]) from 200 to 260 nm in a 1 cm pathlength cuvette with a 5 second averaging time. The mean residue ellipticity (θ) was calculated by dividing the raw signal by peptide concentration (M), pathlength (mm) and number of amino acids. Percent helicity was calculated according to Chen et al. (Biochemistry, 13, 1974, p3350). Thermal denaturation scans of 10 μM peptide solutions in PBS were recorded at 222 nm. The peptide was heated at two degree intervals starting at 4° C., with an equilibration time of 1.5 minutes and an averaging time of 60 seconds.

[5] = Solubility of the peptide (observation)
[6] = tested on: HIV, modified to contain a luciferase reporter gene; format: cell-based; settings: HOS cells expressing CD4 and coreceptor, 6 hours with virus, 48 hours more; read-out: IC50 of inhibition of luciferase activity
Description: HIV, modified to contain a luciferase reporter gene, is mixed with HOS cells expressing CD4 and coreceptor in the presence of diluted protein for 6 hours at 37° C. […] The virus solution is replaced, and the HOS culture is incubated 48 hours more in fresh media. Luciferase activity is measured in a luminometer.

[7] = tested on: syncytia formation between HELA cells expressing CD4 and coreceptor and CHO cells expressing gp160; assay: Cell/cell fusion (syncytia) assay; format: cell-based, HIV; settings: HELA CD4/coreceptor + CHO gp160/Tat, 8 to 24 hours; read-out: IC50 of inhibition of syncytia formation
Description: Assays were carried out to assess the ability of IQN17 to interact with the C-region of gp41 and inhibit function of the fusion protein. This inhibition of membrane fusion by IQN17 and IQN23 and GCN4-pIQI was assessed using a cell based assay. Proteins IQN17, IQN23 and GCN4-pIQI are serially diluted in modified DMEM media with 5% FCS and aliquoted into slide chambers. HELA cells (4×10^4) expressing CD4 and coreceptor and containing a βgalactosidase gene under the control of the Tat promoter are added. CHO cells (2×10^4) expressing gp160 (precursor protein to gp120/gp41) and Tat are also added. The 400 μl miniculture is incubated at 37° for 8 to 24 hours; fused cells (syncytia) will transcribe and translate β-galactosidase. The cells are fixed in gluteraldehyde and exposed to X-gal/Fe solution for one hour. Syncytia that contain P-galactosidase turn blue-green.

[8] = read-out: IC50 (concentration at which half of viral infectivity is inhibited), Table 1
[9] = read-out: IC50 for viral infectivity
[10] = midpoint of thermal denaturation, 10 μM peptide in PBS
[11] = 20 μM peptide in PBS, 3.0 = discrete trimer

Row | Substance | IC50 (HIV-1; [8]) | θ222 nm [1] | melting point | IC50 (HIV-1; [9]) | CD minimum at 222 nm [1] | Melting Temperature [4, 10] | Mobs/Mcalc [2, 11] | other results
1 | Ac-IKKEIEAIKKEQEAIKKKIEAIEKLLQLTVWGIKQLQARIL-NH2 [IZN17] | 5.6 nM | ~−31,000 deg cm^2 dmol^−1 | > 100 °C | – | – | – | – | helicity [1]: helical; oligomeric state ([2]; at 20 μM): discretely trimeric; thermal denaturation temperature compared with IQN17 [3]: ten degrees higher
2 | Ac-KIEEIESKIKKIENEIARIKKLLQLTVWGIKQLQARIL-NH2 [II22N17] | ~170 nM | ~−41,000 deg cm^2 dmol^−1 | > 100 °C | ~170 nM | ~−41,000 deg cm^2 dmol^−1 | >100 °C | 3.02 | Melting Temperature ([4]; at 10 μM): > 100 °C
3 | Ac-KIEEIESKQKKIENEIARIKKLLQLTVWGIKQLQARIL-NH2 [IQ22N17] | ~1000 nM | ~−36,000 deg cm^2 dmol^−1 | ~ 76 °C | ~1000 nM | approximately −36,000 deg cm^2 dmol^−1 | ~76 °C | – | Melting Temperature ([4]; at 10 μM): below 80 °C; Mobs/Mcalc ([2]; determined at 50 μM): 2.73*
4 | Ac-KIKKIENEIARIKKLLQLTVWGIKQLQARIL-NH2 [II15N17] | ~3000 nM | ~−33,000 deg cm^2 dmol^−1 | ~ 76 °C | ~3000 nM | ~−33,000 deg cm^2 dmol^−1 | ~76 °C | 2.64 | –
5 | Ac-LLQLTVWGIKQLQARIL-NH2 [N17, reference compound] | ~10000 nM | – | – | ~10000 nM | – | – | – | solubility [5]: difficult to get into solution—it precipitates
6 | Ac-RMKQIEDKIEEIESKQKKIENEIARIKKLIEAQQHLLQLTVWGIKQLQARIL-NH2 [IQN23] | ~30 nM | – | – | ~30 nM | – | – | 3.29 | IC50 [6]: ~80 nM; gain in inhibitory activity relative to IQN17 (HIV-1; gp41 residues increased from 17): ~6 fold; Mobs/Mcalc ([2]; at 20 μM): 3.3
7 | Ac-RMKQIEDKIEEIESKQKKIENEIARIKKLLQLTVWDIKQLQARIL-NH2 [IQN17(G572D), reference compound] | ~20000 nM | ~−39,000 deg cm^2 dmol^−1 | – | ~20000 nM | – | – | – | –
8 | Ac-RMKQIEDKIEEIESKQKKIENEIARIKKLLQLTVWGIKQLQARIL-NH2 [IQN17] | ~180 nM | ~−36,000 deg cm^2 dmol^−1 | > 100 °C | ~180 nM | – | >100 °C | 3.15 | IC50 [7]: 20 to 80 nM; IC50 [6]: ~250 nM; helicity [1]: fully helical; Melting Temperature ([4]; at 10 μM): above 100 °C; Melting Temperature ([4]; concentration not given): above 100 °C; oligomeric state ([2]; at 20 μM): discretely trimeric
9 | Ac-YGGIKKKEIEAIKKEQEAIKKKIEAIEKEIVQARQLLSGIVQQQNNLLRAIEAQQH-NH2 [IZN26] | – | – | – | – | – | ~82 °C | – | –
10 | EIARIKKLLQLTVWGIKQLQARIL [IQ8N17] | ~10000 nM | – | – | – | – | – | – | –
11 | KQKKIENEIARIKKLLQLTVWGIKWLWARIL [IQ15N17] | ~10000 nM | ~−27,000 deg cm^2 dmol^−1 | – | – | approximately −27,000 deg cm^2 dmol^−1 | ~64 °C | – | thermal stability lower than that of IQ22N17 [4]: about 10 degrees
